One test has as its target T1, rat P2X3 receptor (Rattus norvegicus, UniProt P49654).
T1 construct: expressed in transfected cells; host or cells: CHO-K1
T1 sequence (P49654 1-397): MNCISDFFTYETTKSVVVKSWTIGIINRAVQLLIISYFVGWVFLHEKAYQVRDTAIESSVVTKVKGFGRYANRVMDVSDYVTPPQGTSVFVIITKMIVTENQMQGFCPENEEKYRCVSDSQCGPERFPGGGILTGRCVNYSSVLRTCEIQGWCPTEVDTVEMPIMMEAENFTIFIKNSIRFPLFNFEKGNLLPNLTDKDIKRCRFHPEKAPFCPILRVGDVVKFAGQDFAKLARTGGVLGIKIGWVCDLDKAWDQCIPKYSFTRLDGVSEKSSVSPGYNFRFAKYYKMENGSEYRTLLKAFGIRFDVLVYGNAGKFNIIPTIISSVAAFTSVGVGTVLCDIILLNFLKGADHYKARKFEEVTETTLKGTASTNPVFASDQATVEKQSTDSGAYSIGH
Nature of the test: P2X3/P2X2/3 FLIPR (Fluorometric Imaging Plate Reader) Assay, P2X3. The test is classed as cell-based. To be noted: for Ki: CHO-K1 cells transfected with rat P2X3, agonist α,β-meATP 1 μM, Table 1, read-out: P2X3 pKi (converted). How it is done: (§1) P2X3/P2X2/3 FLIPR (Fluorometric Imaging Plate Reader) Assay
(§2) CHO-K1 cells were transfected with cloned rat P2X3 or human P2X2/3 receptor subunits and passaged in flasks. 18-24 hours before the FLIPR experiment, cells were released from their flasks, centrifuged, and resuspended in nutrient medium at 2.5×10^5 cells/ml. The cells were aliquoted into black-walled 96-well plates at a density of 50,000 cells/well and incubated overnight in 5% CO2 at 37° C. On the day of the experiment, cells were washed in FLIPR buffer (calcium- and magnesium-free Hank's balanced salt solution, 10 mM HEPES, 2 mM CaCl2, 2.5 mM probenecid; FB). Each well received 100 μl FB and 100 μl of the fluorescent dye Fluo-3 AM [2 μM final conc.]. After a 1 hour dye loading incubation at 37° C., the cells were washed 4 times with FB, and a final 75 μl/well FB was left in each well.
(§3) Test compounds (dissolved in DMSO at 10 mM and serially diluted with FB) or vehicle were added to each well (25 μl of a 4× solution) and allowed to equilibrate for 20 minutes at room temperature. The plates were then placed in the FLIPR and a baseline fluorescence measurement (excitation at 488 nm and emission at 510-570 nm) was obtained for 10 seconds before a 100 μl/well agonist or vehicle addition. The agonist was a 2× solution of α,β-meATP producing a final concentration of 1 μM (P2X3) or 5 μM (P2X2/3). Fluorescence was measured for an additional 2 minutes at 1 second intervals after agonist addition. A final addition of ionomycin (5 μM, final concentration) was made to each well of the FLIPR test plate to establish cell viability and maximum fluorescence of dye-bound cytosolic calcium. Peak fluorescence in response to the addition of α,β-meATP (in the absence and presence of test compounds) was measured and inhibition curves generated using nonlinear regression. PPADS, a standard P2X antagonist, was used as a positive control.

The next test addresses T2, human P2X2/3 receptor (Homo sapiens, UniProt P56373+Q9UBL9).
T2 construct: expressed in transfected cells; host or cells: CHO-K1
T2 sequence (Q9UBL9 1-471): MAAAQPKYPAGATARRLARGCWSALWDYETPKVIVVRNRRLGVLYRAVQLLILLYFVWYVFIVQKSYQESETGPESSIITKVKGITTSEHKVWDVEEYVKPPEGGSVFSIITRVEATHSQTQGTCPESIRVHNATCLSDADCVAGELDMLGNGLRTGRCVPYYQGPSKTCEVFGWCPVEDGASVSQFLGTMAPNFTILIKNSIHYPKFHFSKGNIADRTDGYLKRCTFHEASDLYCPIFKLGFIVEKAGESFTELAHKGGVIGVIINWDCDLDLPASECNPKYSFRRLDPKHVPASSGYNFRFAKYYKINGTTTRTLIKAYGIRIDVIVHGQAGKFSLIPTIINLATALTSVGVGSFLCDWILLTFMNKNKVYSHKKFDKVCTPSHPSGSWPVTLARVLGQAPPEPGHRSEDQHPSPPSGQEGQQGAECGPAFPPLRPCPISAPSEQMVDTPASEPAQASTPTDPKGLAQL
T2 sequence (P56373 1-397): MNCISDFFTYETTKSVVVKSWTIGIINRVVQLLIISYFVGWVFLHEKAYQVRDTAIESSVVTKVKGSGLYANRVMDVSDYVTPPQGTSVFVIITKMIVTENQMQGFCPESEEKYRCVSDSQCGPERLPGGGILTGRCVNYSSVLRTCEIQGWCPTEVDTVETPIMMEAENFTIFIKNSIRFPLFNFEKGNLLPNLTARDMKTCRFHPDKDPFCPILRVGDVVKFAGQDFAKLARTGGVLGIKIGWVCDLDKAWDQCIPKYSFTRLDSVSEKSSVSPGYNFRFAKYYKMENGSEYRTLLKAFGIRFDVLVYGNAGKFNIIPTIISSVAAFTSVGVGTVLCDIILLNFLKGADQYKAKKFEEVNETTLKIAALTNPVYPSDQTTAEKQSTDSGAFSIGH
Nature of the test: P2X3/P2X2/3 FLIPR (Fluorometric Imaging Plate Reader) Assay, P2X2/3. To be noted: CHO-K1 cells transfected with human P2X2/3; agonist α,β-meATP 5 μM; Table 1; read-out: P2X2/3 pKi (converted). The test is classed as cell-based. The method, then: as §1, §2, §3

Each structure is given as a SMILES string.

Turning to `COC[C@@H](C)NC(=O)c1cc(-c2ccc(C)cc2)cc(-n2ncnc2C(C)C)c1` [Compound 15, 5-(5-Isopropyl-[1,2,4]triazol-1-yl)-4′-methyl-biphenyl-3-carboxylic acid ((R)-2-methoxy-1-methyl-ethyl)-amide], the Ki at rat P2X3 receptor is 10.2 nM; on human P2X2/3 receptor, 813 nM.

With `Cc1ccc(-c2cc(C(=O)NC(C)CO)cc(-n3ncnc3C(C)C)c2)cc1` (stereo not drawn) [Compound 16, 5-(5-Isopropyl-[1,2,4]triazol-1-yl)-4′-methyl-biphenyl-3-carboxylic acid (2-hydroxy-1-methyl-ethyl)-amide], the Ki on rat P2X3 receptor is 3.55 nM; at human P2X2/3 receptor, 295 nM.

Regarding `Cc1ccc(-c2cc(C(=O)N[C@@H](C)CO)cc(-n3ncnc3C(C)C)c2)cc1` [Compound 17, 5-(5-Isopropyl-[1,2,4]triazol-1-yl)-4′-methyl-biphenyl-3-carboxylic acid ((S)-2-hydroxy-1-methyl-ethyl)-amide], the Ki on rat P2X3 receptor is 2.88 nM; at human P2X2/3 receptor, 141 nM.

For `Cc1ccc(-c2cc(C(=O)NC(C)c3cnccn3)cc(-n3ncnc3C(C)C)c2)cc1` (stereo not drawn) [Compound 18, 5-(5-Isopropyl-[1,2,4]triazol-1-yl)-4′-methyl-biphenyl-3-carboxylic acid (1-pyrazin-2-yl-ethyl)-amide], the Ki is 3.09 nM on rat P2X3 receptor and 24 nM at human P2X2/3 receptor.

For `Cc1ccc(-c2cc(C(=O)NC(C)c3cnccn3)cc(-n3cnnc3C(C)C)c2)cc1` (stereo not drawn) [Compound 19], the Ki on rat P2X3 receptor was 5.89 nM; on human P2X2/3 receptor, 1290 nM.

Regarding `COC[C@@H](C)NC(=O)c1cc(-c2ccc(C)cc2)cc(-n2cnnc2C(C)C)c1` [Compound 20, 5-(3-Isopropyl-[1,2,4]triazol-4-yl)-4′-methyl-biphenyl-3-carboxylic acid ((R)-2-methoxy-1-methyl-ethyl)-amide], the Ki at rat P2X3 receptor was 372 nM; at human P2X2/3 receptor, 10000 nM.

Turning to `Cc1ccc(-c2cc(C(=O)N[C@@H](C)CO)cc(-n3cnnc3C(C)C)c2)cc1` [Compound 21, 5-(3-Isopropyl-[1,2,4]triazol-4-yl)-4′-methyl-biphenyl-3-carboxylic acid ((S)-2-hydroxy-1-methyl-ethyl)-amide], the Ki at rat P2X3 receptor is 977 nM; on human P2X2/3 receptor it was 10000 nM.

As for `Cc1ccc(-c2cc(C(=O)NC(C)CO)cc(-n3nncc3C(C)C)c2)c(F)c1` (stereo not drawn) [Compound 23, 2′-Fluoro-5-(5-isopropyl-[1,2,3]triazol-1-yl)-4′-methyl-biphenyl-3-carboxylic acid (2-hydroxy-1-methyl-ethyl)-amide], the Ki on rat P2X3 receptor was 5.75 nM; at human P2X2/3 receptor, 355 nM.

For `Cc1ccc(-c2cc(C(=O)N[C@@H](C)CO)cc(-n3nncc3C(C)C)c2)c(F)c1` [Compound 24, 2′-Fluoro-5-(5-isopropyl-[1,2,3]triazol-1-yl)-4′-methyl-biphenyl-3-carboxylic acid ((S)-2-hydroxy-1-methyl-ethyl)-amide], the Ki at rat P2X3 receptor was 3.31 nM; on human P2X2/3 receptor, 324 nM.

As to `Cc1ccc(-c2cc(C(=O)NC(C)c3cnccn3)cc(-n3nncc3C(C)C)c2)c(F)c1` (stereo not drawn) [Compound 25, 2′-Fluoro-5-(5-isopropyl-[1,2,3]triazol-1-yl)-4′-methyl-biphenyl-3-carboxylic acid (1-pyrazin-2-yl-ethyl)-amide], the Ki was 12 nM at rat P2X3 receptor and 72.4 nM on human P2X2/3 receptor.

For the compound `Cc1ccc(-c2cc(C(=O)NC(C)CO)cc(-n3cnnc3C(C)C)c2)cc1` (stereo not drawn) [Compound 26, 5-(3-Isopropyl-[1,2,4]triazol-4-yl)-4′-methyl-biphenyl-3-carboxylic acid (2-hydroxy-1-methyl-ethyl)-amide], the Ki was 155 nM at rat P2X3 receptor and 10000 nM on human P2X2/3 receptor.

For the compound `Cc1ccc(-c2cc(C(=O)NC(C)CO)cc(-n3nc(C)nc3C(C)C)c2)cc1` (stereo not drawn) [Compound 28, 5-(5-Isopropyl-3-methyl-[1,2,4]triazol-1-yl)-4′-methyl-biphenyl-3-carboxylic acid (2-hydroxy-1-methyl-ethyl)-amide], the figures for the Ki on rat P2X3 receptor and on human P2X2/3 receptor were 64.6 nM and 10000 nM, respectively.

Consider `Cc1ccc(-c2cc(C(=O)N[C@@H](C)CO)cc(-n3nc(C)nc3C(C)C)c2)cc1` [Compound 29, 5-(5-Isopropyl-3-methyl-[1,2,4]triazol-1-yl)-4′-methyl-biphenyl-3-carboxylic acid ((S)-2-hydroxy-1-methyl-ethyl)-amide], for which the Ki at rat P2X3 receptor is 46.8 nM; on human P2X2/3 receptor, 3630 nM.

Consider `Cc1ccc(-c2cc(C(=O)NC(C)c3cnccn3)cc(-n3nc(C)nc3C(C)C)c2)cc1` (stereo not drawn) [Compound 30, 5-(5-Isopropyl-3-methyl-[1,2,4]triazol-1-yl)-4′-methyl-biphenyl-3-carboxylic acid (1-pyrazin-2-yl-ethyl)-amide], for which the values for the Ki on rat P2X3 receptor and on human P2X2/3 receptor were 4.57 nM and 135 nM, respectively.

`Cc1ccc(-c2cc(C(=O)NC(C)c3cnccn3)cc(-n3c(C)nnc3C(C)C)c2)cc1` (stereo not drawn) [Compound 31, 5-(3-Isopropyl-5-methyl-[1,2,4]triazol-4-yl)-4′-methyl-biphenyl-3-carboxylic acid (1-pyrazin-2-yl-ethyl)-amide]: the Ki at rat P2X3 receptor is 35.5 nM; on human P2X2/3 receptor, 398 nM.

On to `COC[C@@H](C)NC(=O)c1cc(-c2ccc(C)cc2)cc(-n2c(C)nnc2C(C)C)c1` [Compound 32, 5-(3-Isopropyl-5-methyl-[1,2,4]triazol-4-yl)-4′-methyl-biphenyl-3-carboxylic acid ((R)-2-methoxy-1-methyl-ethyl)-amide], for which the figures for the Ki at rat P2X3 receptor and on human P2X2/3 receptor were 427 nM and 10000 nM, respectively.

Regarding `COC[C@@H](C)NC(=O)c1cc(-c2ccc(C)cc2F)cc(-n2ncnc2C(C)C)c1` [Compound 33, 2′-Fluoro-5-(5-isopropyl-[1,2,4]triazol-1-yl)-4′-methyl-biphenyl-3-carboxylic acid ((R)-2-methoxy-1-methyl-ethyl)-amide], the Ki at rat P2X3 receptor was 4.07 nM; on human P2X2/3 receptor it was 1380 nM.

On to `Cc1ccc(-c2cc(C(=O)NC(C)CO)cc(-n3ncnc3C(C)C)c2)c(F)c1` (stereo not drawn) [Compound 34, 2′-Fluoro-5-(5-isopropyl-[1,2,4]triazol-1-yl)-4′-methyl-biphenyl-3-carboxylic acid (2-hydroxy-1-methyl-ethyl)-amide], for which the Ki was 3.24 nM at rat P2X3 receptor and 427 nM at human P2X2/3 receptor.

`Cc1ccc(-c2cc(C(=O)N[C@@H](C)CO)cc(-n3ncnc3C(C)C)c2)c(F)c1` [Compound 35, 2′-Fluoro-5-(5-isopropyl-[1,2,4]triazol-1-yl)-4′-methyl-biphenyl-3-carboxylic acid ((S)-2-hydroxy-1-methyl-ethyl)-amide]: the results for the Ki on rat P2X3 receptor and at human P2X2/3 receptor were 1.7 nM and 417 nM, respectively. Moreover, at rat P2X3 receptor (text b666, CHO-K1 cells, α,β-meATP 1 μM, read-out: pIC50 for the P2X3 receptor (converted)), the IC50 is roughly 1.7 nM.

Source of the values: patent publication US8440708B2, “Triazole-substituted arylamides as P2X3 and P2X2/3 antagonists” (Roche Palo Alto LLC, priority 2007, dated 2013).
